This experiment concerns SK-BR-3 cancer cells. Kind of experiment: Inhibitory activity against proliferation of SK-BR-3 cancer cells (CellTiter-Glo). The following applies: Homo sapiens, SK-BR-3, 120 h, ErbB2-overexpressing SK-BR-3 cells, 120 hours after treatment. Type of experiment: cell-based. Here is the method:
To evaluate the inhibitory activity of a compound according to the present invention against the proliferation of ErbB2-overexpressing cancer cells, the following experiment were performed.
10% FBS-added McCOY'S 5A was used for SK-BR-3 cancer cells. 20% FBS-added RPMI-1640 was used for BT-474 cancer cells. Transduced Ba/F3 cells were cultured in a RPMI-1640 medium to which 1 μg/ml puromycin (Invitrogen) was added.
48 hours before compound treatment, each type of the SK-BR-3 and BT-474 cells were seeded at 5,000 cells/well in a white clear bottom 96 well plate (Corning). The compound was diluted in dimethyl sulfoxide (SK-BR-3: 3-fold dilution, a total of 12 concentrations, BT-474: […], a total of 12 concentrations) and injected at 1 μl to have the final concentration of 0.2 nM to 5 μM. As for measurement of live cells, 120 hours after treatment with the compound, a CellTiter-Glo luminescent cell-viability reagent (Promega) was used to store the cells at room temperature for 10 minutes, followed by measurement of luminescence using a reader (SynergyNeo, Biotek). Each test was repeated three times.
The result values were calculated as a cell growth rate (%) compared to the control group. A graph was plotted using the GraphPad Prism version 8.3.0 program, and GI50 values were calculated.
A general note: Cellular ATP, detected with luciferase, serves as a proxy for viable cell number.

Consider 22 compounds from patent US20240262815A1, “HETEROARYL DERIVATIVE, METHOD FOR PREPARING SAME, AND PHARMACEUTICAL COMPOSITION COMPRISING SAME AS ACTIVE INGREDIENT” (VORONOI INC., priority 2021, published 2024).

Each structure is given as a SMILES string.

Turning to `C=CC(=O)Nc1cc(Nc2cc(N3OCC[C@@H]3c3cc(F)cc(-c4cccnc4)c3)ncn2)c(OC)cc1N1CCN(C)CC1` [Example 177, (R)-N-(5-((6-(3-(3-fluoro-5-(pyr-idin-3-yl)phenyl)-isoxazolidin-2-yl)-pyrimidin-4-yl)-amino)-4-meth-oxy-2-(4-methyl-piperazin-1-yl)-phenyl)acrylamide], the GI50 (in general, the concentration that inhibits growth by half) fell in the range of 50 to 500 nM.

With `C=CC(=O)Nc1cc(Nc2cc(N3OCC[C@@H]3c3cc(F)cc(-c4cccnc4)c3)ncn2)c(OC)cc1N(C)CCN(C)C` [Example 178, (R)-N-(2-((2-(dimethylamino)-ethyl)(methyl)-amino)-5-((6-(3-(3-fluoro-5-(pyr-idin-3-yl)phenyl)-isoxazolidin-2-yl)-pyrimidin-4-yl)-amino)-4-methoxy-phenyl)acrylamide], the GI50 is less than 50 nM.

In the case of `C=CC(=O)Nc1cc(Nc2cc(N3OCCC3c3cccc(-c4cccs4)c3)ncn2)c(OC)cc1N1CCC(N2CCN(C3CC3)CC2)CC1` (stereo not shown) [Example 182, N-(2-(4-(4-cyclo-propylpiperazin-1-yl)piperidin-1-yl)-4-methoxy-5-((6-(3-(3-(thiophen-2-yl)phenyl)isoxazol-idin-2-yl)pyrim-idin-4-yl)amino)-phenyl)acrylamide], the GI50 was less than 50 nM.

On to `C=CC(=O)Nc1cc(Nc2cc(N3OCC[C@@H]3c3cccc(C(=O)OC4CCCCC4)c3)ncn2)c(OC)cc1N1CCC(N2CCN(C3CC3)CC2)CC1` [Example 185, cyclohexyl (R)-3-(2-(6-((5-acryl-amido-4-(4-(4-cyclopropylpiper-azin-1-yl)piper-idin-1-yl)-2-meth-oxyphenyl)amino)-pyrimidin-4-yl)-isoxazolidin-3-yl)-benzoate], for which the GI50 is 50 to 500 nM.

Regarding `C=CC(=O)Nc1cc(Nc2cc(N3OCC[C@@H]3c3cccc(-c4ccccc4)c3)ncn2)c(OC)cc1N1CCC(N2CCN(C3CC3)CC2)CC1` [Example 190, (R)-N-(5-((6-(3-([1,1′-biphenyl]-3-yl)isoxazolidin-2-yl)pyrimidin-4-yl)-amino)-2-(4-(4-cyclopropylpiper-azin-1-yl)piper-idin-1-yl)-4-meth-oxyphenyl)acryl-amide], the GI50 is less than 50 nM.

Consider `C=CC(=O)Nc1cc(Nc2cc(N3OCC[C@@H]3c3cc(F)cc(Oc4cccc(F)c4)c3)ncn2)c(OC)cc1N1CCN(C)CC1` [Example 191, (R)-N-(5-((6-(3-(3-fluoro-5-(3-fluoro-phenoxy)phenyl)-isoxazolidin-2-yl)-pyrimidin-4-yl)-amino)-4-meth-oxy-2-(4-methyl-piperazin-1-yl)-phenyl)acrylamide], for which the GI50 lay within 50 to 500 nM.

With `C=CC(=O)Nc1cc(Nc2cc(N3OCC[C@@H]3c3cc(F)cc(-c4ccsc4)c3)ncn2)c(OC)cc1N1CCN(C)CC1` [Example 193, (R)-N-(5-((6-(3-(3-fluoro-5-(thiophen-3-yl)phenyl)isox-azolidin-2-yl)pyr-imidin-4-yl)amino)-4-methoxy-2-(4-methylpiperazin-1-yl)phenyl)acryl-amide], the GI50 was less than 50 nM.

Regarding `C=CC(=O)Nc1cc(Nc2cc(N3OCC[C@@H]3c3cc(F)cc(-c4ccsc4)c3)ncn2)c(OC)cc1N(C)CCN(C)C` [Example 194, (R)-N-(2-((2-(dimethylamino)-ethyl)(methyl)-amino)-5-((6-(3-(3-fluoro-5-(thio-phen-3-yl)phenyl)-isoxazolidin-2-yl)-pyrimidin-4-yl)-amino)-4-methoxy-phenyl)acrylamide], the GI50 is less than 50 nM.

Take `C=CC(=O)Nc1cc(Nc2cc(N3OCC[C@@H]3c3cc(F)cc(OCc4ccccn4)c3)ncn2)c(OC)cc1N1CCN(C)CC1` [Example 195, (R)-N-(5-((6-(3-(3-fluoro-5-(pyr-idin-2-ylmethoxy)-phenyl)isoxazol-idin-2-yl)pyrim-idin-4-yl)amino)-4-methoxy-2-(4-methylpiperazin-1-yl)phenyl)-acrylamide]: the GI50 was less than 50 nM.

`C=CC(=O)Nc1cc(Nc2cc(N3OCC[C@@H]3c3cc(F)cc(OCc4ccccn4)c3)ncn2)c(OC)cc1N(C)CCN(C)C` [Example 196, (R)-N-(2-((2-(dimethylamino)-ethyl)(methyl)-amino)-5-((6-(3-(3-fluoro-5-(pyr-idin-2-ylmethoxy)-phenyl)isoxazol-idin-2-yl)pyrim-idin-4-yl)amino)-4-methoxyphen-yl)acrylamide]: the GI50 was less than 50 nM.

In the case of `C=CC(=O)Nc1cc(Nc2cc(N3OCCC3c3cccc(-c4ccc5ncnn5c4)c3)ncn2)c(OC)cc1N1CCN(C)CC1` (stereo not shown) [Example 197, N-(5-((6-(3-(3-([1,2,4]triazolo-[1,5-a]pyridin-6-yl)phenyl)isoxazol-idin-2-yl)pyrim-idin-4-yl)amino)-4-methoxy-2-(4-methylpiperazin-1-yl)phenyl)-acrylamide], the GI50 was less than 50 nM.

For the compound `C=CC(=O)Nc1cc(Nc2cc(N3OCCC3c3cccc(-c4ccc5ncnn5c4)c3)ncn2)c(OC)cc1N(C)CCN(C)C` (stereo not shown) [Example 198, N-(5-((6-(3-(3-([1,2,4]triazolo-[1,5-a]pyridin-6-yl)phenyl)isoxazol-idin-2-yl)pyrim-idin-4-yl)amino)-2-((2-(dimethyl-amino)ethyl)-(methyl)amino)-4-methoxyphen-yl)acrylamide], the GI50 is less than 50 nM.

Take `C=CC(=O)Nc1cc(Nc2cc(N3OCC[C@@H]3c3cc(F)cc(Oc4cccc(F)c4)c3)ncn2)c(OC)cc1N(C)CCN(C)C` [Example 199, (R)-N-(2-((2-(dimethylamino)-ethyl)(methyl)-amino)-5-((6-(3-(3-fluoro-5-(3-fluorophenoxy)-phenyl)isoxazol-idin-2-yl)pyrim-idin-4-yl)amino)-4-methoxyphen-yl)acrylamide]: the GI50 was in the range of 50 to 500 nM.

In the case of `C=CC(=O)Nc1cc(Nc2cc(N3OCCC3c3cccc(-c4cnc5ccnn5c4)c3)ncn2)c(OC)cc1N(C)CCN(C)C` (stereo not shown) [Example 202, N-(2-((2-(dimethyl-amino)ethyl)-(methyl)amino)-4-methoxy-5-((6-(3-(3-(pyrazolo[1,5-a]pyrimidin-6-yl)-phenyl)isoxazol-idin-2-yl)pyrim-idin-4-yl)amino)-phenyl)acrylamide], the GI50 was less than 50 nM.

As to `C=CC(=O)Nc1cc(Nc2cc(N3OCCC3c3cccc(-c4cccn5ccnc45)c3)ncn2)c(OC)cc1N1CCN(C)CC1` (stereo not shown) [Example 203, N-(5-((6-(3-(3-(imidazo[1,2-a]-pyridin-8-yl)phen-yl)isoxazolidin-2-yl)pyrimidin-4-yl)amino)-4-meth-oxy-2-(4-methyl-piperazin-1-yl)-phenyl)acrylamide], the GI50 was less than 50 nM.

For the compound `C=CC(=O)Nc1cc(Nc2cc(N3OCCC3c3cccc(-c4cccn5ccnc45)c3)ncn2)c(OC)cc1N(C)CCN(C)C` (stereo not shown) [Example 204, N-(2-((2-(dimeth-ylamino)ethyl)-(methyl)amino)-5-((6-(3-(3-(imidazo-[1,2-a]pyridin-8-yl)phenyl)isoxazol-idin-2-yl)pyrim-idin-4-yl)amino)-4-methoxyphen-yl)acrylamide], the GI50 is less than 50 nM.

For the compound `C=CC(=O)Nc1cc(Nc2cc(N3OCC[C@@H]3c3cc(F)cc(-c4cccc(F)c4)c3)ncn2)c(OC)cc1N1CCC(N2CCN(C3CC3)[C@H](C)C2)CC1` [Example 206], the GI50 lay in the range of 500 to 5000 nM.

For `C=CC(=O)Nc1cc(Nc2cc(N3OCC[C@@H]3c3cc(F)cc(-c4cccc(F)c4)c3)ncn2)c(OC)cc1N1CCC(N2CCOCC2)CC1` [Example 207, (R)-N-(5-((6-(3-(3′,5-difluoro-[1,1′-biphenyl]-3-yl)isoxazolidin-2-yl)pyrimidin-4-yl)-amino)-4-methoxy-2-(4-morpholino-piperidin-1-yl)-phenyl)acrylamide], the GI50 is less than 50 nM.

Regarding `C=CC(=O)Nc1cc(Nc2cc(N3OCC[C@@H]3c3cc(F)cc(-c4cccc(F)c4)c3)ncn2)c(OC)cc1N(C)CCN(C)C` [Example 208, (R)-N-(5-((6-(3-(3′,5-difluoro-[1,1′-biphenyl]-3-yl)-isoxazolidin-2-yl)-pyrimidin-4-yl)-amino)-2-((2-(dimethylamino)-ethyl)(methyl)-amino)-4-methoxy-phenyl)acrylamide], the GI50 was less than 50 nM.

As for `C=CC(=O)Nc1cc(Nc2cc(N3OCC[C@@H]3c3cc(F)cc(-c4cccc5ncnn45)c3)ncn2)c(OC)cc1N1CCN(C)CC1` [Example 209, (R)-N-(5-((6-(3-(3-([1,2,4]triazolo-[1,5-a]pyridin-5-yl)-5-fluorophen-yl)isoxazolidin-2-yl)pyrimidin-4-yl)-amino)-4-methoxy-2-(4-methylpiper-azin-1-yl)phenyl)-acrylamide], the concentration for 50% growth inhibition (GI50) is less than 50 nM.

Take `C=CC(=O)Nc1cc(Nc2cc(N3OCC[C@@H]3c3cc(F)cc(-c4cccc5ncnn45)c3)ncn2)c(OC)cc1N(C)CCN(C)C` [Example 210, (R)-N-(5-((6-(3-(3-([1,2,4]triazolo-[1,5-a]pyridin-5-yl)-5-fluorophen-yl)isoxazolidin-2-yl)pyrimidin-4-yl)-amino)-2-((2-(dimethylamino)-ethyl)(methyl)-amino)-4-methoxy-phenyl)acrylamide]: the GI50 was less than 50 nM.

On to `C=CC(=O)Nc1cc(Nc2cc(N3OCCC3c3cccc(-c4cccc(F)c4)c3)ncn2)c(OC)cc1N1CCN(C)CC1` (stereo not shown) [Example 211, N-(5-((6-(3-(3′-fluoro-[1,1′-biphenyl]-3-yl)-isoxazolidin-2-yl)-pyrimidin-4-yl)-amino)-4-methoxy-2-(4-methylpiper-azin-1-yl)phenyl)-acrylamide], for which the GI50 was in the range of 50 to 500 nM.
